Six molecules from patent US20250051277A1, “DELIVERY OF THERAPEUTIC ALKALOID COMPOUNDS” (Sensorium Therapeutics, Inc., priority 2021, published 2025) can be followed below.

Like-named read-outs stand apart in the source and are kept apart here. A value given as a limit tells only on which side of the number the result lay.

Data set [1] is described as follows: Plasma Stability Assay of Example A3, mouse plasma. To be noted: 5 μM, 37° C., % of prodrug compound remaining.
Data set [2] is described as follows: Plasma Stability Assay of Example A3, human plasma. As to conditions: 5 μM, 37° C., % of prodrug compound remaining.
For data set [3] the following is noted: 5 μM.
Data set [4] is classed as physicochemical. As to conditions: DI water, 25° C., 0.5 mM.
Data set [5] is classed as physicochemical. To be noted: SGF with pepsin, pH 1.5, 37° C., 0.5 mM.

For `COc1ccc([C@@]23CCC(OC(=O)c4cccc(C(C)(C)C)c4)=C[C@@H]2N(C)CC3)cc1OC` [Compound 375, (3aS,7aS)-3a-(3,4-dimethoxyphenyl)-1-methyl-2,3,3a,4,5,7a-hexahydro-1H-indol-6-yl3-(tert-butyl)benzoate], the “Mouse Plasma Prodrug (%)” value came to 100% in data set [1] (0 min); 11% in data set [1] (15 min); 2% in data set [1] (30 min); 0% in data set [1] (60 min); 0% in data set [1] (120 min); 0% in data set [1] (240 min). Moreover, the “Human Plasma Prodrug (%)” value is recorded as 100% in data set [2] (0 min); greater than 99% in data set [2] (15 min); greater than 99% in data set [2] (30 min); 97% in data set [2] (60 min); 57% in data set [2] (120 min); 26% in data set [2] (240 min). In addition, the “Mouse Plasma Compound 001 (%)” value in data set [3] (0 min) is 41.82%; in data set [3] (15 min), 45.54%; in data set [3] (30 min), 45.99%; in data set [3] (60 min) it was 41.28%; in data set [3] (120 min) it was 42.28%; in data set [3] (240 min) it was 29.74%.

Turning to `COc1ccc([C@@]23CCC(OC(=O)C(C)(C)C)=C[C@@H]2N(C)CC3)cc1OC` [Compound 309, [(3aS,7aS)-3a-(3,4-dimethoxyphenyl)-1-methyl-3,4,5,7a-tetrahydro-2H-indol-6-yl]2,2-dimethylpropanoate], the “Condition 2 Conversion (%)” value in data set [4] (time 1 min), in data set [4] (time 5 min), in data set [4] (time 30 min), in data set [4] (time 1 h), in data set [4] (time 4 h) and in data set [4] (time 24 h) was 0% each time. In addition, the “Mouse Plasma Prodrug (%)” value turned out to be 100.0% in data set [1] (0 min); 34.6% in data set [1] (15 min); 24.9% in data set [1] (30 min); 8.2% in data set [1] (60 min); 0.0% in data set [1] (120 min); 0.0% in data set [1] (240 min). Moreover, the “Condition 1 Conversion (%)” value in data set [5] (time 1 min), in data set [5] (time 5 min), in data set [5] (time 30 min), in data set [5] (time 1 h), in data set [5] (time 4 h) and in data set [5] (time 24 h) was 0% in each case. In addition, the “Human Plasma Prodrug (%)” value was determined as 100.0% in data set [2] (0 min); 64.5% in data set [2] (15 min); 41.4% in data set [2] (30 min); 16.5% in data set [2] (60 min); 3.6% in data set [2] (120 min); 2.0% in data set [2] (240 min). For the same molecule, the “Mouse Plasma Compound 001 (%)” value came to 61.7% in data set [3] (15 min); 63.7% in data set [3] (30 min); 62.6% in data set [3] (60 min); 63.2% in data set [3] (120 min); 60.9% in data set [3] (240 min).

Regarding `COc1ccc([C@@]23CCC(OC(=O)c4ccc(C#N)cc4)=C[C@@H]2N(C)CC3)cc1OC` [Compound 354, (3aS,7aS)-3a-(3,4-dimethoxyphenyl)-1-methyl-2,3,3a,4,5,7a-hexahydro-1H-indol-6-yl4-cyanobenzoate], the “Mouse Plasma Prodrug (%)” value in data set [1] (0 min) is 100%; in data set [1] (15 min) it was 5%; in data set [1] (30 min), 7%; in data set [1] (60 min), 5%; in data set [1] (120 min) it was 4%; in data set [1] (240 min) it was 0%. Moreover, the “Human Plasma Prodrug (%)” value came out at 100% in data set [2] (0 min); 93% in data set [2] (15 min); 72% in data set [2] (30 min); 42% in data set [2] (60 min); 13% in data set [2] (120 min); 1% in data set [2] (240 min). Further, the “Mouse Plasma Compound 001 (%)” value is recorded as 33.27% in data set [3] (0 min); 32.79% in data set [3] (15 min); 32.69% in data set [3] (30 min); 29.45% in data set [3] (60 min); 27.14% in data set [3] (120 min); 20.12% in data set [3] (240 min).

With `COc1ccc([C@@]23CCC(OC(=O)C(c4ccccc4)c4ccccc4)=C[C@@H]2N(C)CC3)cc1OC` [Compound 306, [(3aS,7aS)-3a-(3,4-dimethoxyphenyl)-1-methyl-3,4,5,7a-tetrahydro-2H-indol-6-yl]2,2-diphenylacetate], the “Condition 2 Conversion (%)” value in data set [4] (time 1 min), in data set [4] (time 5 min), in data set [4] (time 30 min), in data set [4] (time 1 h), in data set [4] (time 4 h) and in data set [4] (time 24 h) was 0% throughout. Besides, the “Mouse Plasma Prodrug (%)” value in data set [1] (0 min) was 100.0%; in data set [1] (15 min), 6.2%; in data set [1] (60 min), 1.6%; in data set [1] (120 min), 0.4%; in data set [1] (240 min), 0.1%. The “Condition 1 Conversion (%)” value in data set [5] (time 1 min), in data set [5] (time 5 min), in data set [5] (time 30 min), in data set [5] (time 1 h), in data set [5] (time 4 h) and in data set [5] (time 24 h) was 0% in each case. The “Human Plasma Prodrug (%)” value is 100.0% in data set [2] (0 min); 89.5% in data set [2] (15 min); 75.2% in data set [2] (30 min); 53.7% in data set [2] (60 min); 32.4% in data set [2] (120 min); 13.8% in data set [2] (240 min).

With `COc1ccc([C@@]23CCC(OC(=O)c4cccc(N(C)C)c4)=C[C@@H]2N(C)CC3)cc1OC` [Compound 307, [(3aS,7aS)-3a-(3,4-dimethoxyphenyl)-1-methyl-3,4,5,7a-tetrahydro-2H-indol-6-yl]3-(dimethylamino)benzoate], the “Mouse Plasma Prodrug (%)” value in data set [1] (0 min) is given as 100.0%; in data set [1] (15 min), 18.1%; in data set [1] (30 min), 3.8%; in data set [1] (60 min), 0.1%; in data set [1] (120 min), 0.0%; in data set [1] (240 min) it was 0.0%. Besides, the “Human Plasma Prodrug (%)” value in data set [2] (0 min) was found to be 100.0%; in data set [2] (15 min) it was 88.5%; in data set [2] (30 min), 87.6%; in data set [2] (60 min) it was 83.0%; in data set [2] (120 min), 71.1%; in data set [2] (240 min), 57.5%. Besides, the “Mouse Plasma Compound 001 (%)” value is 73.4% in data set [3] (15 min); 81.1% in data set [3] (30 min); 86.3% in data set [3] (60 min); 79.9% in data set [3] (120 min); 79.0% in data set [3] (240 min).

As for `COc1ccc([C@@]23CCC(OC(=O)c4ccc(F)cc4)=C[C@@H]2N(C)CC3)cc1OC` [Compound 353, (3aS,7aS)-3a-(3,4-dimethoxyphenyl)-1-methyl-2,3,3a,4,5,7a-hexahydro-1H-indol-6-yl4-fluorobenzoate], the “Mouse Plasma Prodrug (%)” value in data set [1] (0 min) is 100%; in data set [1] (15 min) it was 0%; in data set [1] (30 min), 0%; in data set [1] (60 min), 0%; in data set [1] (120 min), 0%; in data set [1] (240 min) it was 0%. Further, the “Human Plasma Prodrug (%)” value in data set [2] (0 min) is 100%; in data set [2] (15 min), 95.4%; in data set [2] (30 min), 90.1%; in data set [2] (60 min), 79.7%; in data set [2] (120 min), 55.3%; in data set [2] (240 min), 39.6%. The “Mouse Plasma Compound 001 (%)” value came to 47.7% in data set [3] (0 min); 55% in data set [3] (15 min); 51.6% in data set [3] (30 min); 50.6% in data set [3] (60 min); 46.4% in data set [3] (120 min); 29.3% in data set [3] (240 min).
